In US3960863A, “Pyrido[1,2-a]pyrimidinone derivatives” (Sankyo Company Limited, priority 1974, dated 1976):
Like-named read-outs stand apart in the source and are kept apart here.

Assays:
[1] = system: Thiopental-induced Anesthesia; assay: Potentiating effect of thiopental-induced anesthesia (anesthesia-potentiating effect); type: in vivo, mouse; details: 0.5 h, read-out: Potentiating Effect of Thiopental-induced Anesthesia ED50
Method: The pharmacological test was performed in the manner that to a mouse having the body weight of about 25 g was orally administered and, after 30 minutes, given through the vein sodium thiopental in an amount of 30 mg per 1 kg of the body weight, and then the duration time of loss of righting reflux was detected. In the above Table, the value is expressed in ED50 value, by which the duration time of loss of righting reflex is prolonged twice as long as that of the control having been given with thiopental only.

[2] = Acute toxicity in mouse (LD50); details: in vivo
[3] = mouse, oral, sodium thiopental 30 mg/kg i.v. after 30 minutes, ED50 = dose doubling duration of loss of righting reflex vs control, Litchfield-Wilcoxon, 95% confidence limits in parentheses
[4] = ip, 95% confidence limits in parentheses where given, read-out: Acute Toxicity in mouse LD50 (i.p.)
[5] = po, 95% confidence limits in parentheses, read-out: Acute Toxicity in mouse LD50 (p.o.)

SMILES | ED50 [1, 3] | LD50 [2, 4] | LD50 [2, 5] | ED50 ([1]; Mus musculus, po)
Cc1cccc(N2CCN(CCc3c(C)nc4c(C)cccn4c3=O)CC2)c1 [3-[2-(4-m-Tolyl-1-piperazinyl)ethyl]-2,9-dimethyl-4H-pyrido[1,2-a]pyrimidin-4-one] | 1.25 mg/kg | 100 to 300 mg/kg | – | –
Cc1ccn2c(=O)c(CCN3CCN(c4ccc(Cl)cc4)CC3)c(C)nc2c1 [3-[2-(4-p-Chlorophenyl-1-piperazinyl)ethyl]-2,8-dimethyl-4H-pyrido[1,2-a]pyrimidin-4-one] | 2.9 mg/kg | 100 to 300 mg/kg | – | –
Cc1cccc(N2CCN(CCc3c(C)nc4cc(C)ccn4c3=O)CC2)c1 [3-[2-(4-m-tolyl-1-piperazinyl)ethyl]-2,8-dimethyl-4H-pyrido[1,2-a]pyrimidin-4-one] | 0.8 mg/kg | 100 to 300 mg/kg | 480 mg/kg | –
CN(C)CCCN1c2ccccc2Sc2ccc(Cl)cc21 [chlorpromazine, reference compound] | – | 105 mg/kg | 245 mg/kg | 3.5 mg/kg
Cc1cccc(N2CCN(CCc3c(C)nc4cc(C)cc(C)n4c3=O)CC2)c1 [3-[2-(4-m-tolyl-1-piperazinyl)ethyl]-2,6,8-trimethyl-4H-pyrido[1,2-a]pyrimidin-4-one] | 1.7 mg/kg | 100 to 300 mg/kg | – | –
COc1cccc(N2CCN(CCc3c(C)nc4cc(C)ccn4c3=O)CC2)c1 [3-[2-(4-m-Methoxyphenyl-1-piperazinyl)ethyl]-2,8-dimethyl-4H-pyrido[1,2-a]pyrimidin-4-one] | 0.7 mg/kg | 100 to 300 mg/kg | – | –
Cc1ccc(N2CCN(CCc3c(C)nc4c(C)cccn4c3=O)CC2)cc1 [3-[2-(4-p-Tolyl-1-piperazinyl)ethyl]-2,9-dimethyl-4H-pyrido[1,2-a]pyrimidin-4-one] | 1.8 mg/kg | 100 to 300 mg/kg | – | –
Cc1ccn2c(=O)c(CCN3CCN(c4cccc(Cl)c4)CC3)c(C)nc2c1 [3-[2-(4-m-Chlorophenyl-1-piperazinyl)ethyl]-2,8-dimethyl-4H-pyrido[1,2-a]pyrimidin-4-one] | 0.92 mg/kg | 100 to 300 mg/kg | 635 mg/kg | –
